Measured values as given in US20230022200A1, “DRUG THAT PREVENTS DIALYSIS SHIFT OR RENAL DEATH” (Toray Industries, Inc., priority 2019, published 2023).
Where two headings read alike, the source gives them in different places.

Columns and labels:
[1] = tested on: cats with spontaneous chronic kidney disease; conditions: in vivo; cited from earlier work
[2] = tested on: chronic renal failure patients with primary glomerular disease and nephrosclerosis as primary diseases; conditions: whole trial, serum creatinine 2.0 to 4.5 mg/dl at entry; 120 μg or 240 μg BPS administration group; cited from earlier work
[3] = tested on: chronic renal failure patients with primary glomerular disease and nephrosclerosis as primary diseases; conditions: twice a day for 6 months, cited from earlier work
[4] = tested on: chronic renal failure patients with primary glomerular disease and nephrosclerosis as primary diseases; assay: CASSIOPEIR trial: time to dialysis shift or renal death, hazard ratio of drug and placebo by Cox proportional hazard model; type: in vivo, human
Procedure: For the analysis, the full analysis set and Intention-To-Treat (ITT) defined in Nakamoto et al., BMC Nephrology were used, and the hazard ratio (HR) of the drug and placebo was calculated by the Cox proportional hazard model. A lower HR value indicates a higher effectiveness of the drug.
A data set obtained in the CASSIOPEIR trial according to the protocol described in Nakamoto et al., BMC Nephrology was used. Summarizing the protocol of the CASSIOPEIR trial, the targets are chronic renal failure patients with primary glomerular disease and nephrosclerosis as primary diseases, and a BPS sustained-release tablet, TRK-100STP (the same preparation as Careload (trademark) LA Tablets 60 μg (Toray Industries, Inc.)), is administered at 120 μg or 240 μg as BPS per day in two divided doses, morning and evening. Further, this trial was a multicenter, randomized, placebo-controlled, double-blind comparative trial, and carried out in Japan, China, South Korea, Taiwan, Hong Kong, Malaysia, and Thailand.
The duration of drug administration was 2 to 4 years, and the number of patients underwent randomization was 892, and the trial was conducted in 160 sites. Further, the ITT population was the primary analysis target population. The primary endpoint was the time to occurrence of the renal composite endpoint defined by doubling of serum creatinine or end-stage renal disease. The guidelines (2013) of the Japanese Society for Dialysis Therapy were used as a reference to determine the time to shift to dialysis. Specifically, according to the policy that “even with adequate conservative treatment, progressive deterioration of renal function is observed, and the need arises when GFR<15 ml/min/1.73 m^2. However, the introduction of actual blood dialysis is determined by comprehensively judging the symptoms of renal failure, activity in daily life, and nutritional status, and a decision is made when these cannot be avoided except by dialysis therapy,” and finally based on the judgment of the investigator, the time to shift to dialysis and the time to reach renal death were determined. The term “dialysis” as used herein includes peritoneal dialysis, in addition to blood dialysis.

[5] = tested on: chronic renal failure rat models; conditions: combined use with ARBs and ACEIs; cited from earlier work
[6] = cited from earlier work
[7] = tested on: patients with chronic renal failure; conditions: cited from earlier work
renal failure model rats = conditions: rat, in vivo; cited from earlier work

For `CC#CCC(C)[C@H](O)/C=C/[C@@H]1[C@H]2c3cccc(CCCC(=O)[O-])c3O[C@H]2C[C@H]1O.[Na+]` (stereo partly drawn) [BPS, Beraprost sodium], the renal function [1] is listed as “suppresses the decline in renal function”, the “renal composite endpoints and time to shift to dialysis” value [2] is listed as “not minimized at all” and the “increase in serum creatinine level during the administration period compared to before the start of administration” value ([3]; 120-μg group) is listed as 1.069 times. For the same molecule, the “increase in serum creatinine level during the administration period compared to before the start of administration” value ([3]; 240-μg group) was 1.064 times, the “HR, time to dialysis shift” value ([4]; 240 μg per day, ACEI used in combination (except patients who further used ARB), all subjects, P value 0.0994) was 0.60 and the “HR, time to dialysis shift” value ([4]; 240 μg per day, ACEI used in combination, Japanese patients, P value 0.0882) was 0.49. For the same molecule, the “HR, time to dialysis shift” value ([4]; 240 μg, ARB in combination, no ACEI, Japanese partial population, P value 0.3597) was 0.79, the “HR, time to dialysis shift” value ([4]; 240 μg, ARB in combination, no ACEI, P value 0.5401) was 0.88 and the “HR, dialysis shift” value ([4]; Japanese patients, BMI less than 23, 240 μg, P value 0.0048) was 0.38. For the same molecule, the “HR, dialysis shift” value ([4]; Japanese patients, BMI less than 23 and serum albumin less than 3.8 g/dl) was 0.29, the “HR, dialysis shift” value ([4]; Japanese patients, serum albumin less than 3.8 g/dl, 240-μg administration, P value 0.1567) was 0.50 and the “HR, time to dialysis shift” value ([4]; plasma BPS 50 pg/ml or more confirmed, eGFR 15 or more and less than 45 ml/min/1.73 m^2 (CKD stages 3b and 4), P value 0.0368) was 0.59. The “HR, time to dialysis shift” value ([4]; plasma BPS 50 pg/ml or more confirmed, serum creatinine less than 3 mg/dl, P value 0.0251) was 0.46, the “effect of angiotensin inhibitors to suppress the progression of renal damage (increase in serum creatinine levels)” value [5] was “enhances the effect of the angiotensin inhibitors” and the “Cmax and AUC in renal damage patients compared to healthy subjects” value ([6]; Shimamura et al.) was “elevated”. For the same molecule, the half-life in blood ([6]; in vivo) was “about 1 hour”, the “slope of the time-varying straight line of the reciprocal of the serum creatinine level” value ([7]; 20 μg per dose three times a day for 6 months) was “becomes gentle” and the shift to dialysis ([7]; serum creatinine 1.9 mg/dl or less before start, 20 μg three times a day) was “did not shift to dialysis for up to 54 months”. The “effect of BPS” value ([7]; serum creatinine 2.2 mg/dl or more (within the 1.9 to 2.8 mg/dl group)) was “not observed”, the “time to shift to dialysis” value ([7]; serum creatinine 2.8 mg/dl or more before start, 20 μg three times a day) was no more than 24 months and the renal tissue damage (renal failure model rats) was “reduces renal tissue damage”. For the same molecule, the serum creatinine levels (renal failure model rats) was “suppresses the increase in serum creatinine levels”.

For `CC#CC[C@H](C)[C@H](O)/C=C/[C@@H]1[C@H]2c3cccc(CCCC(=O)[O-])c3O[C@H]2C[C@H]1O.[Na+]` [BPS-314d, sodium (+)-(1R,2R,3aS,8b S)-2,3,3a,8b-tetrahydro-2-hydroxy-1-[(E)-(3S,4S)-3-hydroxy-4-methyl-1-octen-6-ynyl]-1H-cyclopenta[b]benzofuran-5-butyrate], the “Cmax of BPS-314d in plasma relative to BPS” value ([6]; when BPS is administered to a human) is given as “¼” and the “AUC of BPS-314d in plasma relative to BPS” value ([6]; when BPS is administered) is given as “¼”.
